In article PMC11648915, “Identification and development of TRPM4 antagonists to counteract neuronal excitotoxicity” (iScience, 2024):
Read-outs that look alike come from different tables or passages of the source.

Columns and labels:
[1] = biological target: human TRPM4 (Homo sapiens, UniProt Q8TD43); test: Inside-out patch clamp, human TRPM4; type: cell-based; parameters: Human TRPM4 (UniProtKB: Q8TD43-1) and mouse Trpm4 (UniProtKB: Q7TN37-1) were amplified via PCR; expressed in transfected cells; conditions: inside-out patch clamp configuration
Procedure: Patch clamp recordings were conducted using an EPC10 patch clamp amplifier and Patchmaster software (HEKA, Germany). An Ag/AgCl wire served as the reference electrode in all experiments. […] Liquid junction potential was compensated before achieving gigaseal formation. All experiments were conducted at room temperature. Whole-cell currents were recorded in transiently transfected HEK293 cells expressing either wildtype human TRPM4, TRPM4-L907A, or TRPM4-S924A. Recordings involved a 400 ms increasing voltage ramp from –100 mV to +100 mV, initiated from a holding potential of 0 mV. The interval between each sweep was 2 seconds, with data sampled at 5 kHz. […] To identify TRPM4 currents, extracellular Na^+ was replaced with equimolar NMDG^+. […] Similar to whole-cell recordings, a 400 ms increasing voltage ramp from –100 mV to +100 mV was applied from a holding potential of 0 mV. The interval between sweeps was 2 seconds, and data were sampled at 5 kHz. […] TRPM4 currents were activated by 500 μM CaCl2 and deactivated by 10 mM EGTA, both added to the intracellular solution. Ca^2+ activation curves were fitted using a likelihood maximization algorithm to estimate the parameters for the sigmoidal fitting curves y-maximum, slope and midpoint as part of the R package sicegar (V0.2.4).

[2] = biological target: T1, mouse TRPM4 (Mus musculus, UniProt Q7TN37); test: Inside-out patch clamp, mouse TRPM4; type: cell-based; conditions: inside-out patch clamp configuration
T1 construct: Human TRPM4 (UniProtKB: Q8TD43-1) and mouse Trpm4 (UniProtKB: Q7TN37-1) were amplified via PCR; eGFP (C); expressed in transfected cells

[3] = tested on: hsTRPM4 L907A, S924A and L907A/S924A mutants; test: Whole-cell patch clamp of wild-type and binding-site mutant hsTRPM4; conditions: whole-cell voltage clamp, HEK293T
Source text: Initially, we assessed the basic properties of the hsTRPM4 mutants using whole-cell patch clamp electrophysiology.

[4] = In vivo pharmacokinetics after single i.p. or i.v. dose; conditions: female, C57BL/6J, mouse
Procedure: Next, to assess in vivo availability of the Series 1–3 compounds, we evaluated drug metabolism and pharmacokinetics (DMPK). We measured compound concentrations in plasma, heart, and brain at several time points after intraperitoneal (i.p.) or intravenous (i.v.) single-dose injections.
Half-life and bioavailability were calculated by noncompartmental analysis using the R package PK[84] (v1.3-6).

[5] = biological target: T2, CYP 1A2 (Homo sapiens, UniProt P05177); test: CYP inhibition assay 1A2; type: in vitro ADME
T2 construct: purchased BD Gentest
T2 sequence (P05177 1-516): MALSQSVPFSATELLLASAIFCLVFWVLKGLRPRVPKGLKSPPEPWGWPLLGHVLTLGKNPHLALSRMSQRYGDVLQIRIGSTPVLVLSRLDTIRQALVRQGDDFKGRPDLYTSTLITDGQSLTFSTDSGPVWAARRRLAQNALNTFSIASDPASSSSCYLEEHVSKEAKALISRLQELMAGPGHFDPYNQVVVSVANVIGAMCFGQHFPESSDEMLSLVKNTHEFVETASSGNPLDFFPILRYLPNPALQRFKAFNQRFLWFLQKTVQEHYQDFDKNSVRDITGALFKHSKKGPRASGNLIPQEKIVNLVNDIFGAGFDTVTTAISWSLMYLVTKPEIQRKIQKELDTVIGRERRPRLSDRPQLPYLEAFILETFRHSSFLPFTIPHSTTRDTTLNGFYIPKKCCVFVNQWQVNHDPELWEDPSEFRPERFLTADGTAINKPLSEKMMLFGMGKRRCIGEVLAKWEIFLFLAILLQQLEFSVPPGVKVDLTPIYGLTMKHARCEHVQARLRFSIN
Procedure: (§1) The half-maximal inhibitory concentration (IC50) for cytochrome P450 (CYP) enzymes was determined using an in vitro enzyme inhibition assay. Recombinant CYP enzymes or human liver microsomes from BD Gentest, in 0.1 M phosphate buffer pH 7.4, containing native CYP enzymes were incubated with the test compound at various concentrations (1, 3, 10 and 30 μM) and containing 0.5% DMSO and 0.1% BSA final concentrations. 1 mM of NADPH cofactor was added and the reaction was started by a rapid increase of temperature until 37°C.

[6] = biological target: T3, CYP 2C19 (Homo sapiens, UniProt P33261); test: CYP inhibition assay 2C19; type: in vitro ADME
T3 construct: purchased BD Gentest
Procedure: as §1

[7] = biological target: T4, CYP 2C9 (Homo sapiens, UniProt P11712); test: CYP inhibition assay 2C9; type: in vitro ADME
T4 construct: purchased BD Gentest
Procedure: as §1

[8] = Caco-2 permeability assay; type: in vitro ADME; conditions: human, direction not given
Procedure: Caco-2 permeability was evaluated using a cell-based assay with Caco-2 cells cultured on permeable membrane inserts. The test compound was added at 10 μM to the apical (donor) compartment, and samples were collected from the basolateral (receiver) compartment at 120 min. The test compound was also added at 10 μM to the basolateral (donor) compartment, and samples were collected from the apical (receiver) compartment at 120 min. The amount of the compound in both compartments was measured using mass spectrometry (LC-MS/MS). The permeability coefficient (Papp, nm/s) apical to basolateral and basolateral to apical, and an efflux ratio were calculated.

T1 sequence (Q7TN37 whole entry): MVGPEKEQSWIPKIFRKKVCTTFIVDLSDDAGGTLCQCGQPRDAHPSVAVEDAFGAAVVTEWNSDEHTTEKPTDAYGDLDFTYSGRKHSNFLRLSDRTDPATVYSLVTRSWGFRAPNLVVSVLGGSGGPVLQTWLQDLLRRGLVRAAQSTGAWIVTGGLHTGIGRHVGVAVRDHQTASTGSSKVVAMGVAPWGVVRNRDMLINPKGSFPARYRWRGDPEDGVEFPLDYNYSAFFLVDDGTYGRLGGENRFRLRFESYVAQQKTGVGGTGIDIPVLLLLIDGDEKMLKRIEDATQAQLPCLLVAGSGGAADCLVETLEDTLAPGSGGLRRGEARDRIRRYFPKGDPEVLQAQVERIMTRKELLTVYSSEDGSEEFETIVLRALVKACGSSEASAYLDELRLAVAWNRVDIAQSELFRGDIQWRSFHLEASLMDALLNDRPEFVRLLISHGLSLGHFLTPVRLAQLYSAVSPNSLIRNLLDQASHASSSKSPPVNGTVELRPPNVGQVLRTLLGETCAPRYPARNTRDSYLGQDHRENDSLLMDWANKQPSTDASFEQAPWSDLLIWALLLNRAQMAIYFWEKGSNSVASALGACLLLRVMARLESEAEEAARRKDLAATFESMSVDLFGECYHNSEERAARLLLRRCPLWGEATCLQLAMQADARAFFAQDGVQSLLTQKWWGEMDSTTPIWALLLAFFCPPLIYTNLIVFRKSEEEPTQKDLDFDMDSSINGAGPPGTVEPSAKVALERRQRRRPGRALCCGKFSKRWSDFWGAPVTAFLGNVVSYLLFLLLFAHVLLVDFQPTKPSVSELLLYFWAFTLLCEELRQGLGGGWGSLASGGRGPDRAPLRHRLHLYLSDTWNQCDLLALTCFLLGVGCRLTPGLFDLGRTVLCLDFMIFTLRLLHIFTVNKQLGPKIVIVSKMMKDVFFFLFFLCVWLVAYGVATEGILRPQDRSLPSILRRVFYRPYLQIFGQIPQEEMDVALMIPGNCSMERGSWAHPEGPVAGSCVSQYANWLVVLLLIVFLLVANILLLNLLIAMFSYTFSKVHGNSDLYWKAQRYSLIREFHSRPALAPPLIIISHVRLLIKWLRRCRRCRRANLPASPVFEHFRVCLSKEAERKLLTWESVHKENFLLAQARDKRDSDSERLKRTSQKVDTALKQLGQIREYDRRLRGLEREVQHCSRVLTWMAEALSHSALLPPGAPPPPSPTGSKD
T4 sequence (P11712 whole entry): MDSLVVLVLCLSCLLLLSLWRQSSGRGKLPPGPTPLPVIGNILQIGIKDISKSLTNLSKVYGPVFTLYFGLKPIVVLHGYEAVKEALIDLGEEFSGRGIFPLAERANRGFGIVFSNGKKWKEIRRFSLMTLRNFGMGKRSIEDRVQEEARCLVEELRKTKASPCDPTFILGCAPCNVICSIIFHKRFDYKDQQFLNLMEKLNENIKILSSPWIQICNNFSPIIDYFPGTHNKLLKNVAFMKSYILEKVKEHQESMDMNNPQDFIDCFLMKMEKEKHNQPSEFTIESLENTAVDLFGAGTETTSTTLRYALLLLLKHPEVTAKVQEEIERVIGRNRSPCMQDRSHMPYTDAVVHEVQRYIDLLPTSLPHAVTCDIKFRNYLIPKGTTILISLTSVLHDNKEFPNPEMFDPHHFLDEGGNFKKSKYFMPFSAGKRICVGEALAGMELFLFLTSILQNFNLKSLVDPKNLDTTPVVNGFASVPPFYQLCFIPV
T3 sequence (P33261 whole entry): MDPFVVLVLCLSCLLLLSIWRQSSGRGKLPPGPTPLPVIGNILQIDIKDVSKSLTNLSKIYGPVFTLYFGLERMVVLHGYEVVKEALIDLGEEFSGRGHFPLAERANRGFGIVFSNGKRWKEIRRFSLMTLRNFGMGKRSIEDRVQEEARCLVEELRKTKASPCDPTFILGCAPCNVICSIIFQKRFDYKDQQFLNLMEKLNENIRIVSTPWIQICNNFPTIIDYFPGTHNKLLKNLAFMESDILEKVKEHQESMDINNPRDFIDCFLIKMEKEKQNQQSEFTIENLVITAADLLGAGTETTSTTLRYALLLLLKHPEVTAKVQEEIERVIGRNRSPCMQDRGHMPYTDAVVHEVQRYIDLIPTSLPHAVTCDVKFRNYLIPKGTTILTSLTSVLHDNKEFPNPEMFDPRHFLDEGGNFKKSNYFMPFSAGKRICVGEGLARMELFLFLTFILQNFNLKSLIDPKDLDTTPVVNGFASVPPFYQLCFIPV
Chain of human TRPM4 (Q8TD43 whole entry): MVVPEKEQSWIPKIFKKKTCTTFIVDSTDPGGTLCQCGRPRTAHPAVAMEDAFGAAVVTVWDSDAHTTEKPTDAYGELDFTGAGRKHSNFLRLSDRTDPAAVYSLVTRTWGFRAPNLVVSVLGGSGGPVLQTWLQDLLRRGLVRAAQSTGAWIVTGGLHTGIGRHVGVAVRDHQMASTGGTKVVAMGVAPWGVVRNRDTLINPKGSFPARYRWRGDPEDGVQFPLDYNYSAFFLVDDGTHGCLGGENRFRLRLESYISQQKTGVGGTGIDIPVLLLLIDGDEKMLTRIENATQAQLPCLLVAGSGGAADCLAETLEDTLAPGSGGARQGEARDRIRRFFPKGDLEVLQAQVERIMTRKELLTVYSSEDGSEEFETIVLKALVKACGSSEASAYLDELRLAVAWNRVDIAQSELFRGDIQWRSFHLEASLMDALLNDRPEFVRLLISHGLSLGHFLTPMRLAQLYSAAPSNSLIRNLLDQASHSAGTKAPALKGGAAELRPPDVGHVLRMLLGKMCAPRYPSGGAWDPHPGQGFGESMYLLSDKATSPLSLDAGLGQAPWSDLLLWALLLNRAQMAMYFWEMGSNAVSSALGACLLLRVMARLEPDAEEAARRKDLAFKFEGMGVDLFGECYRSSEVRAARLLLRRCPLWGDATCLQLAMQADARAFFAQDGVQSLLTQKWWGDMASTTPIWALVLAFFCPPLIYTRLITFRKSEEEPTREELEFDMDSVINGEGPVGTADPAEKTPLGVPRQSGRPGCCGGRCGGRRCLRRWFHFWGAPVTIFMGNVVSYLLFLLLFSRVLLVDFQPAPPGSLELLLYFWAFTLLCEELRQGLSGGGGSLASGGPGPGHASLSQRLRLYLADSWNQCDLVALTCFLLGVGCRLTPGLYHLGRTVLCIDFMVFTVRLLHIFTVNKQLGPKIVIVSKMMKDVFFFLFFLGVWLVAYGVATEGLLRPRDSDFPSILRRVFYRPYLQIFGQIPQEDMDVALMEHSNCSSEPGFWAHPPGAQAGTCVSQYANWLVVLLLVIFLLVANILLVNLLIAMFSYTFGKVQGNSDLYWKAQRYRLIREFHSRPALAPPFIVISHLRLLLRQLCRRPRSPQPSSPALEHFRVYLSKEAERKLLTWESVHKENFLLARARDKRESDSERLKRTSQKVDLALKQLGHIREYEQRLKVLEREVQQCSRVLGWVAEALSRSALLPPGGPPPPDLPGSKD

Q: What does the source list for `Fc1cccc(-c2ccccc2NCc2nc3ccccc3o2)c1` [CMP343]?
A: Activity on human TRPM4 [1]: almost completely blocked; Activity on mouse TRPM4 [2]: reduced activity on mouse TRPM4 compared to human TRPM4; Activity on mouse TRPM4 ([2]; listed as 343): significantly less effective on mouse TRPM4; Current inhibition of hsTRPM4 L907A and S924A mutants versus wildtype [3]: significantly reduced current inhibition in at least one hsTRPM4 mutant variant; half-life ([4]; brain, ip, read-out: Brain half-life (converted)): 2.1 h; half-life ([4]; brain, iv, read-out: Brain half-life (converted)): 0.2 h; half-life ([4]; heart, ip, read-out: Heart half-life (converted)): 15.3 h; half-life ([4]; heart, iv, read-out: Heart half-life (converted)): 2.1 h; half-life ([4]; plasma, ip, read-out: Plasma half-life (converted)): 4.3 h; half-life ([4]; plasma, iv, read-out: Plasma half-life (converted)): 0.3 h

Q: Which IC50 [5] does the source give for `Fc1ccccc1-c1ccccc1NCc1nc2ccccc2o1` [CMP353] here?
A: 1 µM

Q: With `c1csc(-c2ccccc2NCc2nc3ccccc3o2)c1` [CMP355] as the compound, how does the IC50 [6] read?
A: 6.2 µM

Q: What about the IC50 [5] of the same compound?
A: 1.3 µM

Q: And the IC50 [7]?
A: 14.9 µM

Q: Which Papp at 120 min, 10 μM ([8]; read-out: Caco-2 perm.) does the source give for `Cc1ccsc1-c1ccccc1NCc1nc2ccccc2o1` [CMP369] here?
A: 52 ×10⁻⁶ cm/s

Q: For `Nc1ccccc1-c1ccccc1NCc1nc2ccccc2o1` [CMP457], which Papp at 120 min, 10 μM ([8]; heading: Caco-2 perm.) is on record?
A: 21 ×10⁻⁶ cm/s
